A word on the IC50: it is the point on the concentration scale where inhibition reaches its midpoint. Broadly, the EC50 is the concentration giving half of the maximal effect.

Like-named read-outs stand apart in the source and are kept apart here.

In one series the target is rVMAT2 (Rattus norvegicus (Rat), UniProt Q01827). The experiment in a line: rVMAT2 fluorometric transporter inhibition assay (FFN206 uptake, rVMAT2-HEK). It counts as cell-based. As for the experimental part:
(§1) Inhibition assays of transporters (hSERT and rVMAT2) were performed according to the following protocol.
(§2) Cell culture preparation and maintenance. Stably transfected hSERT-HEK and rVMAT2-HEK cellular cultures were maintained in Dulbecco's Minimal Essential Medium (DMEM) with GlutaMAX (Gibco) with the following additions: 10% (v/v) Fetal Bovine Serum (FBS, Atlanta Biologicals), 100 U/mL Penicillin (Gibco), and 10 μg/mL Streptomycin (Gibco). With regards to the former cell lineage, an additional ingredient, 500 μg/mL Geneticin (G418) (Gibco) was included to preserve the respective transgene.
(§3) hSERT and rVMAT2 fluorometric screening assays. For both hSERT and rVMAT2 screening experiments, respective singly transfected cells were seeded at a density of 0.09×10^6 cells/well in poly-D-Lysine (Alamanda Polymers, Inc.) coated white solid-bottom 96-well plates (Costar). Growth was permitted for approximately 44 hours in said aqueous media and at an incubation environment of 37° C. and 5% Carbon Dioxide. At the beginning of the experiment, the cellular growth solution was aspirated, and individual cells were rinsed with 150 μL of 1×Dulbecco's Phosphate Buffered Saline (PBS; HyClone). 63 μL of Experimental Media (consisting of the following contents: DMEM without phenol red but with 4.5 g/L of D-Glucose (Gibco), 1% (v/v) FBS (Atlanta Biologicals), 100 U/mL Penicillin (Gibco), and 10 μg/mL Streptomycin (Gibco)) with 2×tiered concentrations of inhibitor (or DMSO, the vehicle of these experiments) were added to the respective wells. […] A final solution of 120 μL of PBS is finally added to all corresponding wells for cell maintenance before undergoing fluorescence uptake reading by a BioTek H1MF plate reader. […]
(§4) Data analysis. […] Respective inhibitor values were first subtracted from vehicular values to quantify the respective fluorescence uptake. This metric was then analyzed using the dose-response-inhibitor nonlinear curve fitting model ([inhibitor] vs response (three parameters)) as supplied by GraphPad Prism 8 software. […]

Another series has as its system C57BL/6J mice. In words: Mouse tail-flick test. As to conditions: s.c., cumulative doses 1-30 mg/kg, 30 min post injection. It counts as in vivo. The procedure: C57BL/6J (8-12 weeks, 22-31 g) were purchased from the Jackson Laboratory (Bar Harbor, ME) and housed 5 mice per cage with food and water available ad libitum. Mice were maintained on a 12-hr light/dark cycle (lights on 7:00-19:00) and all testing was done in the light cycle. Temperature was kept constant at 22±2° C., and relative humidity was maintained at 50±5%. Mice were moved to the testing room 30 minutes before the experiment to allow for acclimation. The body weight of each mouse and base tail-flick value were recorded. Mice were administered a 1 mg/kg s.c. dose of compound solution (volume of injection 220-310 μL based on body weight). After injection mice were returned to the home cage and allowed to rest for 30 minutes. Thirty minutes post injection the tail-flick measurement was taken using thermal stimulation via IR on a Ugo Basile unit set to 52 PSU (ten seconds was used as a maximum latency to prevent tissue damage). Mice were then administered 3 mg/kg s.c. dose, allowed to rest for 30 minutes, followed by another tail-flick measurement. […] Tail-flick latencies for the different doses were expressed as percentage of maximum potential effect (% MPE) by subtracting the experimental value by the base tail flick value then dividing by the difference between the maximum possible latency (10 seconds) and the base tail-flick value and finally multiplying by 100. […]
On the technique in general: Hot-plate and tail-flick tests time the reaction to a heat stimulus.

Another series concerns the target rKOR (Rattus norvegicus (Rat), UniProt P34975). The experiment in a line: rKOR agonist assay (cAMP), rKOR-CHO. It counts as cell-based. The procedure: EC50 values and % efficacy of control agonist (KOR: U-50,488) maximal response at 1 μM for rKOR-CHO were obtained by screening the selected compounds via commercially available assay services.
Another series has as its target hSERT (Homo sapiens (Human), UniProt P31645). The experiment in a line: hSERT fluorometric transporter inhibition assay (APP+ uptake, hSERT-HEK). It counts as cell-based. The procedure:
as §1, §2, §3, §4

For series [1], the system named is adult human primary ventricular myocytes. The experiment in a line: Pro-arrhythmia assay in adult human primary ventricular cardiomyocytes (contractility). In kind it is cell-based. The following applies: 0.1-10 μM, 1 Hz pacing. As for the experimental part:
Cardiac adverse effects of iboga alkaloids and related analogs was assessed via a commercially available assay, procedure reported in (Nguyen, N. et al. 2017; Page, G. et al. 2016) (FIG. 1).
Isolation of adult human primary ventricular myocytes. Adult human primary ventricular myocytes were isolated from ethically consented donor hearts. A proprietary protocol was employed to enzymatically digest hearts and isolate cardiomyocytes.
Contractility recordings procedures. Cardiomyocytes were placed in a perfusion chamber mounted on the stage of inverted Motic AE31E (IonOptix) or Olympus IX83P1ZF microscopes (MyoBlazer) and continuously perfused at approximately 2 ml/min with recording buffer heated to 35±1° C. using an in-line heater from Warner Instruments (IonOptix & MyoBlazer) and allowed to equilibrate for 5 minutes under constant perfusion. The cells were field stimulated with supra-threshold voltage at a 1 Hz pacing frequency, with a bipolar pulse of 3 ms duration, using a pair of platinum wires placed on opposite sides of the chamber connected to a MyoPacer stimulator. […] The IonWizard software or MyoBLAZER Analysis software analyzed the periodicity in the optical density of these bands by means of a fast Fourier transform algorithm.
Pro-arrhythmia markers. […] STV (STV=Σ|CAn+1−CAn|(20×√2)^−1) was calculated with the last 20 transients of each control and test article concentration period. […]

Series [2] deals with human ethera-go-go-related gene (hERG) potassium channels (Homo sapiens (Human), UniProt Q12809). The following applies: Alper, K. et al 2016; cited from earlier work.
The subject of another series is human cardiomyocytes. As to conditions: Rubi, L. et al 2017; cited from earlier work.
Series [3] has as its system male F344 rats. In words: Morphine self-administration, repeated dosing regimen. In kind it is in vivo, rat.
For series [4], the system named is male F344 rats. The experiment in a line: Morphine intravenous self-administration, single administration. In kind it is in vivo, rat. As to conditions: 40 mg/kg IP.

`CCC1CC2C[C@H]3c4oc5ccc(O)cc5c4CCN2C13` (stereo partly drawn) [(16R)-Oxa-noribogaine]: the 50% inhibitory concentration (IC50) at rVMAT2 (± SEM, read-out: rVMAT2 (IC50)) amounted to 0.14 ± 0.03 µM; at hSERT (± SEM, read-out: hSERT (IC50)), 0.45 ± 0.07 µM. Moreover, in the series with C57BL/6J mice, the “ED50, analgesia in tail-flick test” value is 2.8 mg/kg. Moreover, the “% efficacy of control agonist (KOR: U-50,488) maximal response at 1 μM” value at rKOR (cAMP) is reported as “(96%)”. For the same compound, the EC50 on rKOR (cAMP, read-out: rKOR (EC50)) was less than 0.01 µM.
Consider `CCC1CC2C[C@@H]3c4oc5ccc(O)cc5c4CCN2C13` (stereo partly drawn) [(16S)-Oxa-noribogaine], for which the IC50 on rVMAT2 (± SEM, read-out: rVMAT2 (IC50)) was determined as 2.8 ± 0.55 µM; on hSERT (± SEM, read-out: hSERT (IC50)), 2.9 ± 0.68 µM. Besides, the “ED50, analgesia in tail-flick test” value in the series on C57BL/6J mice is on record as more than 30 mg/kg. The “% efficacy of control agonist (KOR: U-50,488) maximal response at 1 μM” value on rKOR (cAMP) is “(25%)”. Also, at rKOR (cAMP, read-out: rKOR (EC50)), the EC50 is approximately 0.3 µM.
For `CC[C@H]1C[C@H]2C[C@H]3c4[nH]c5ccc(O)cc5c4CCN(C2)C13` [noribogaine], the pro-arrhythmia effects entry in series [1] is “exhibits pro-arrhytmia effects”. Also, the “hERG block IC50” value in series [2] is given as “low micromolar”. For the same compound, the action potential repolarization entry in the series with human cardiomyocytes is recorded as “significantly delayed action potential repolarization”.
For the compound `CCC1CC2CC3c4oc5ccc(O)cc5c4CCN(C2)C13` (centres unmarked) [oxa-noribogaine], in the series on male F344 rats [3] (after first 10 mg/kg), the “morphine intake in the following three sessions” value is listed as “approximately 40 % of baseline levels”. Moreover, the “morphine intake recovered after administration” value in the series with male F344 rats [3] (after first 40 mg/kg) is recorded as “approximately 60 % of VEH levels”. Moreover, in the series with male F344 rats [3] (after last 5 mg/kg), the “morphine intake at the end of the dosing regimen” value is “approximately 8 % of baseline levels”. In addition, in the series with male F344 rats [3] (after second 10 mg/kg), the “morphine intake in the following session” value is listed as “approximately 25 % of baseline levels”. The “morphine intake recovered over following three days” value in the series on male F344 rats [3] (after second 40 mg/kg) is reported as “approximately 50%”. Moreover, in the series on male F344 rats [3] (eighteen days after last 5 mg/kg), the “morphine intake eighteen days following the last administration” value was determined as 40%. For the same compound, the “morphine intake in the session following administration” value with male F344 rats [3] (first 10 mg/kg) is reported as “approximately 4 infusions”. The results for the concentration for half-maximal inhibition (IC50) at rVMAT2 and against hSERT were 0.67 ± 0.11 µM and 0.9 ± 0.12 µM, respectively. The pro-arrhythmia effects entry in [1] was “no pro-arrhytmia effects even at high concentrations”. For the same compound, the EC50 at rKOR was less than 0.01 µM. Besides, at rKOR (cAMP, read-out: % efficacy of control agonist (KOR: U-50,488) maximal response at 1 μM), the Emax was 102%.
As for epi-oxa-noribogaine, the “morphine intake, duration of reduction” value in the series on male F344 rats [4] is recorded as “significantly decreased morphine self-administration for three sessions”.

The values above are taken from patent publication US20240150372A1 (priority 2021, published 2024).
